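Five compound concentrations were applied to cells in 96-well plates for 48 hours; endpoints were derived by simple linear interpolation of the resulting dose-response curve. The concentration for 50% growth inhibition is given as GI50.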 The source made the active and inactive calls. No stated cut-off is given here; in the data, active = GI50 up to about 1.1 µM and inactive = higher.
Experiments:
Experiment in all cases: NCI tumour cell line growth inhibition, 48 h
M14 = system: M14
DMS-273 = system: DMS-273
DLD-1 = system: DLD-1
RXF 631 = system: RXF 631
HOP-18 = system: HOP-18
DMS-114 = system: DMS-114
Hs-578T = system: Hs-578T
LXFL 529 = system: LXFL 529
BT-549 = system: BT-549

Structure (SMILES)	GI50 (M14)	GI50 (DMS-273)	GI50 (DLD-1)	GI50 (RXF 631)	GI50 (HOP-18)	GI50 (DMS-114)	GI50 (Hs-578T)	GI50 (LXFL 529)	GI50 (BT-549)
COc1ccc(C2C(C(=O)O)=C(COC(C)=O)Oc3cc4c(cc32)OCO4)cc1 (stereo unspecified)	> 100 µM (inactive)	> 100 µM (inactive)	> 100 µM (inactive)	> 100 µM (inactive)	> 100 µM (inactive)	> 100 µM (inactive)	–	–	–
O=Cc1cn(CCCCCCCCn2cc(C=O)c3ccccc32)c2ccccc12	> 10 µM (inactive)	–	–	–	–	–	6.49 µM (inactive)	–	–
CCCNC(/C=C/[Si](C)(C)C)CO.CCCNCC(O)/C=C/[Si](C)(C)C (stereo unspecified)	> 100 µM (inactive)	–	> 100 µM (inactive)	> 100 µM (inactive)	> 100 µM (inactive)	> 100 µM (inactive)	–	> 100 µM (inactive)	–
N/C(=N\O)N/N=C\c1cc([N+](=O)[O-])cc([N+](=O)[O-])c1O	–	2.72 µM (inactive)	> 37.2 µM (inactive)	–	> 100 µM (inactive)	6.08 µM (inactive)	–	–	–
O=C(O)CSCc1cc2c(O)c(c1)Cc1cc(CSCC(=O)O)cc(c1O)Cc1cc(CSCC(=O)O)cc(c1O)Cc1cc(CSCC(=O)O)cc(c1O)C2	> 100 µM (inactive)	–	–	–	–	–	> 100 µM (inactive)	–	29 µM (inactive)
COC(=O)c1ccc(NCC2=C(Br)C(=O)C=CC2=O)cc1Cl	18.2 µM (inactive)	–	–	–	–	–	21.9 µM (inactive)	–	13.1 µM (inactive)
O=C1C(Cl)=C(N2CCC[C@H]2CO)C(=O)c2c(O)ccc(O)c21	1.95 µM (inactive)	–	–	–	–	–	2.26 µM (inactive)	–	> 10 µM (inactive)
CC(=O)O[C@H]1[C@@H]2OC(=O)[C@@](O)(CC3CCCO3)[C@@H]2CC(=O)[C@](C)(O)CC/C=C(\C)CCC[C@@H]1C (stereo partly specified)	40.4 µM (inactive)	–	–	–	–	–	63.4 µM (inactive)	–	26.2 µM (inactive)
O=P1(N2CCOCC2)OCCO1	> 100 µM (inactive)	–	–	–	–	–	> 100 µM (inactive)	–	–
C/C([O-])=C(/c1nc(-c2ccc([N+](=O)[O-])o2)no1)[n+]1cc(C)ccc1C	–	11.7 µM (inactive)	11.5 µM (inactive)	–	10.2 µM (inactive)	16.3 µM (inactive)	–	–	–
COC(=O)C1=COC2OC3/C(=C\c4ccc(O)c(OC)c4)C(=O)OC34C=CC1C24 (stereo unspecified)	3.37 µM (inactive)	16.3 µM (inactive)	18.5 µM (inactive)	–	–	24.7 µM (inactive)	–	13.5 µM (inactive)	–
CCCCOP1(=O)C=CC(Cl)=C(C)C1 (stereo unspecified)	33.3 µM (inactive)	–	–	29.1 µM (inactive)	44.5 µM (inactive)	25.1 µM (inactive)	–	27.9 µM (inactive)	–
CCOC(=O)c1c(-c2ccccc2)c(C)cn1C	> 10 µM (inactive)	–	–	–	–	–	> 10 µM (inactive)	–	> 10 µM (inactive)
COC1C=CC(O)C(CO)O1 (stereo unspecified)	> 100 µM (inactive)	–	> 100 µM (inactive)	–	–	–	–	> 100 µM (inactive)	–
CCOC(=O)/C(C(=O)Nc1ccc(Cl)cc1)=C(/N)N1CCCC1	> 100 µM (inactive)	–	–	–	–	–	> 100 µM (inactive)	–	> 100 µM (inactive)
CSc1nc2c(ncn2C2OCC(O)C(O)C2O)c(=O)n1C (stereo unspecified)	–	> 100 µM (inactive)	> 100 µM (inactive)	–	> 100 µM (inactive)	> 100 µM (inactive)	–	–	–
NC[C@H]1Nc2ccccc2[C@@H](O)C1O (stereo partly specified)	> 100 µM (inactive)	–	–	–	–	–	> 100 µM (inactive)	–	–
CCOC(=O)c1ccc(N[C@@H]2c3cc4c(cc3C(c3cc(OC)c(O)c(OC)c3)[C@H]3C(=O)OCC32)OCO4)cc1 (stereo partly specified)	0.679 µM (active)	–	1.44 µM (inactive)	–	–	0.56 µM (active)	–	4.55 µM (inactive)	1.64 µM (inactive)
COc1cc(C2c3cc4c(cc3[C@@H](Nc3cccc(C(C)=O)c3)C3COC(=O)[C@H]23)OCO4)cc(OC)c1O (stereo partly specified)	–	0.0497 µM (active)	1.37 µM (inactive)	–	1 µM (active)	0.505 µM (active)	–	–	–
CC1C[C@]2(C[C@@H](C)C(=O)O2)OC2CC3(C)C4CCC5C(C)(C)OC(=O)CC[C@@]56C[C@@]46CC[C@]3(C)C12 (stereo partly specified)	> 100 µM (inactive)	> 100 µM (inactive)	> 100 µM (inactive)	> 100 µM (inactive)	> 100 µM (inactive)	> 100 µM (inactive)	–	> 100 µM (inactive)	–
O=C1Cc2c(-c3ccccc3)cc(-c3cccc(Cl)c3)nc2-c2ccccc2N1	8.09 µM (inactive)	–	–	–	–	–	2.09 µM (inactive)	–	6.61 µM (inactive)
CN(CCCCCl)P(=O)(OCC1=CC(=O)c2ccccc2C1=O)OC[C@H]1O[C@@H](n2cc(F)c(=O)[nH]c2=O)C[C@@H]1O (stereo partly specified)	0.0897 µM (active)	–	–	–	–	–	< 0.01 µM (active)	–	9.06 µM (inactive)
COc1cc2cc(C(=O)N3CC(CCl)c4c3cc(N(C)C)c3ccccc43)[nH]c2c(OC)c1OC (stereo unspecified)	< 0.01 µM (active)	–	–	–	–	–	0.0199 µM (active)	–	0.103 µM (active)
Cc1ccc2c(O)cc(-c3cc(C)sc3C)nc2n1	3.2 µM (inactive)	–	–	–	–	–	2.47 µM (inactive)	–	8.87 µM (inactive)
CN(C(=O)c1ccc(OCCCC(=O)O)c(Cl)c1Cl)C1CCCC1	–	> 100 µM (inactive)	> 100 µM (inactive)	–	> 73.1 µM (inactive)	69.5 µM (inactive)	–	–	–
CCCCCCCCCCCC1=C(O)C(=O)C=C(O)C1=O [EMBELIN]	–	4.72 µM (inactive)	8.49 µM (inactive)	–	4.58 µM (inactive)	5.47 µM (inactive)	–	–	–
COc1ccc2cc1Oc1ccc(cc1)C[C@H]1c3cc(c(OC)cc3CCN1C)Oc1c(O)c(OC)cc3c1[C@H](C2)N(C)CC3 [FANGCHINOLINE]	–	14.7 µM (inactive)	23.4 µM (inactive)	–	32.2 µM (inactive)	24.7 µM (inactive)	–	–	–

From ChEMBL document CHEMBL1201862, “PubChem BioAssay data set” (2004)
